Data: patent US4312867A, “Antibacterial compounds, processes for their preparation and compositions containing them” (Beecham Group Limited, priority 1979, dated 1982)
Values after ≈ are worked out from the molar mass of the structure shown.

Tests used:
[1] = test system: M bovis NCTC 10131; assay: in vitro anti-mycoplasmal MIC, Friis' agar (Table 3); format: cell-based
Experimental: (§1) The minimum inhibitory concentrations (MIC) of the examples were determined by either:
(§2) or (ii) by serial dilution in Friis' agar medium.

[2] = test system: M bovis ATCC 25025; assay: as above; format: cell-based
Experimental: as §1, §2

[3] = Mean serum concentrations in neonatal piglets after intramuscular or oral administration; format: in vivo; conditions: pig, 50 mg/kg
Experimental: (f) Mean serum concentrations in neonatal piglets after intramuscular or oral administration at 50 mg/kg of 6-sulphamoylhexyl monate A
Blood levels were assessed in neonatal piglets (2 to 4 animals per group and mean bodyweights about 2 kg). The dose was 50 mg/kg (dose solution=25 mg/ml in 25% ethanol). Doses were given by intramuscular injection and orally by stomach tube. Piglets were bled at intervals up to 6 and at 24 hours, and serum assayed microbiologically (B. subtilis ATCC 6633).

[4] = test system: M. dispar NCTC 10125; assay: anti-mycoplasmal MIC, Friis broth solidified with agarose (Table 4); format: cell-based; conditions: 144 h, 6 days at 37° C.
Experimental: The values were determined in Friis broth solidifed with 0.9% agarose. The inoculum was 10^3 to 10^5 CFV and the MIC's were recorded after 6 days incubation at 37° C.

[5] = test system: Past haemolytica PA5; assay: MIC veterinary bacteria (Table 2), serial dilution in agar; format: cell-based; conditions: diagnostic sensitivity test agar

C/C(=C\C(=O)OCCCCCCS(N)(=O)=O)CC1OCC(CC2OC2C(C)C(C)O)C(O)C1O (centres unmarked) [Example 2, 6-Sulphamoylhexyl monate A]
MIC [1]: < 0.02 µg/mL | MIC [2]: < 0.02 µg/mL | concentration at 10 min ([3]; im): 31400 ng/mL | concentration at 20 min ([3]; im): 31200 ng/mL | concentration at 40 min ([3]; im): 23700 ng/mL | concentration at 1 h ([3]; im): 17300 ng/mL | concentration at 2 h ([3]; im): 9200 ng/mL | concentration at 3 h ([3]; im): 3200 ng/mL | concentration at 4 h ([3]; im): 1020 ng/mL | concentration at 5 h ([3]; im): < 600 ng/mL | concentration at 10 min ([3]; po): 5900 ng/mL | concentration at 20 min ([3]; po): 8300 ng/mL | concentration at 40 min ([3]; po): 8600 ng/mL | concentration at 1 h ([3]; po): 5900 ng/mL | concentration at 2 h ([3]; po): 1800 ng/mL | concentration at 3 h ([3]; po): 1500 ng/mL | concentration at 4 h ([3]; po): 740 ng/mL | concentration at 5 h ([3]; po): < 510 ng/mL

C/C(=C\C(=O)OC(C)CCCCCS(N)(=O)=O)CC1OCC(CC2OC2C(C)C(C)O)C(O)C1O (centres unmarked) [Example 5, 7-Sulphamoylhept-2-yl monate A]
MIC [4]: 100 µg/mL (≈ 192 µM)

C/C(=C\C(=O)OCCCS(=O)(=O)N(C)C)CC1OCC(CC2OC2C(C)C(C)O)C(O)C1O (centres unmarked) [Example 4, 3-N,N-Dimethylsulphamoylpropyl monate A]
MIC [5]: 10 µg/mL (≈ 20.3 µM)
